Among the data in patent publication US8436023B2, “Cyclohexyl-azetidinyl antagonists of CCR2” (Janssen Pharmaceutica N.V., priority 2010, dated 2013) are IC50 values, retold here.

This assay concerns the target T1, CCR2 (Homo sapiens, UniProt P41597).
T1 construct: host or cells: THP-1 human monocytic cells
T1 sequence (P41597 1-360 isoform P41597-2): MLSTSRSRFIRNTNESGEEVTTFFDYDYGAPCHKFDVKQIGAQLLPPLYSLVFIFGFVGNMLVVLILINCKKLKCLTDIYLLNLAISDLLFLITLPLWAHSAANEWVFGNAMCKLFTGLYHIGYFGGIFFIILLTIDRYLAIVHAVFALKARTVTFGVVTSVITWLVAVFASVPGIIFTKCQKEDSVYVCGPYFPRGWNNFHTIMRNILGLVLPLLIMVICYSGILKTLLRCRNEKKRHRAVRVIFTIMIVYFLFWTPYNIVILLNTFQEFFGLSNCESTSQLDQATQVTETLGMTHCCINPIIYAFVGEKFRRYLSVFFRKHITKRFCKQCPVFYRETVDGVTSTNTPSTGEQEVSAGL
The experiment in a line: MCP-1 Receptor Binding Assay in THP-1 Cells. The settings on record: 0.5 nM 125I labeled MCP-1, 2 hours at 30° C., less polar isomer tested where stated, read-out: Inhibition of MCP-1 Binding IC50, CCR2 Binding. The essentials: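 Whole THP-1 cells incubated 2 h at 30 °C with 0.5 nM 125I-MCP-1 and varying concentrations of test compound; bound radioactivity counted after filter harvesting. Where no IC50 obtained, % inhibition given at 25 μM.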

In the case of `Cn1nc(NCC(=O)NC2CN(C3CCC(O)(c4cncs4)CC3)C2)c2cc(C(F)C(F)(F)F)ccc21` (centres unmarked) [Example 65, N-[1-(4-Hydroxy-4-thiazol-5-yl-cyclohexyl)-azetidin-3-yl]-2-[1-methyl-5-(1,2,2,2-tetrafluoro-ethyl)-1H-indazol-3-ylamino]-acetamide], the half-inhibitory concentration (IC50) was found to be 100 nM.
Take `Cn1nc(NCC(=O)NC2CN(C3CCC(O)(c4nccs4)CC3)C2)c2cc(C(F)C(F)(F)F)ccc21` (centres unmarked) [Example 66, N-[1-(4-Hydroxy-4-thiazol-2-yl-cyclohexyl)-azetidin-3-yl]-2-[1-methyl-5-(1,2,2,2-tetrafluoro-ethyl)-1H-indazol-3-ylamino]-acetamide]: the IC50 was found to be 37 nM.
Regarding `CCn1nc(NCC(=O)NC2CN(C3CCC(O)(c4cncs4)CC3)C2)c2cc(C(F)(F)F)ccc21` (centres unmarked) [Example 67, 2-(1-Ethyl-5-trifluoromethyl-1H-indazol-3-ylamino)-N-[1-(4-hydroxy-4-thiazol-5-yl-cyclohexyl)-azetidin-3-yl]-acetamide], the half-inhibitory concentration (IC50) worked out at 8.4 nM.
With `CCn1nc(NCC(=O)NC2CN(C3CCC(O)(c4nccs4)CC3)C2)c2cc(C(F)(F)F)ccc21` (centres unmarked) [Example 68, 2-(1-Ethyl-5-trifluoromethyl-1H-indazol-3-ylamino)-N-[1-(4-hydroxy-4-thiazol-2-yl-cyclohexyl)-azetidin-3-yl]-acetamide], the IC50 is 51 nM.
On to `CCn1nc(NCC(=O)NC2CN(C3CCC(O)(c4cnc(C)s4)CC3)C2)c2cc(C(F)(F)F)ccc21` (centres unmarked) [Example 69, 2-(1-Ethyl-5-trifluoromethyl-1H-indazol-3-ylamino)-N-{1-[4-hydroxy-4-(2-methyl-thiazol-5-yl)-cyclohexyl]-azetidin-3-yl}-acetamide], for which the concentration for half-maximal inhibition (IC50) is 8.6 nM.
As to `CCn1nc(NCC(=O)NC2CN(C3CCC(C(C)C)CC3)C2)c2cc(C(F)(F)F)ccc21` (centres unmarked) [Example 71, 2-(1-Ethyl-5-trifluoromethyl-1H-indazol-3-ylamino)-N-[1-(4-isopropyl-cyclohexyl)-azetidin-3-yl]-acetamide], the 50% inhibitory concentration (IC50) was 730 nM.
On to `CCOC(=O)C1CCC(N2CC(NC(=O)CNc3nn(CC(F)(F)F)c4ccc(C(F)(F)F)cc34)C2)CC1` (centres unmarked) [Example 72, 4-(3-{2-[1-(2,2,2-Trifluoro-ethyl)-5-trifluoromethyl-1H-indazol-3-ylamino]-acetylamino}-azetidin-1-yl)-cyclohexane carboxylic acid ethyl ester], for which the IC50 turned out to be 230 nM.
For `CCc1ncc(C2(O)CCC(N3CC(NC(=O)CNc4nn(CC(F)(F)F)c5ccc(C(F)(F)F)cc45)C3)CC2)s1` (centres unmarked) [Example 73, N-{1-[4-(2-Ethyl-thiazol-5-yl)-4-hydroxy-cyclohexyl]-azetidin-3-yl}-2-[1-(2,2,2-trifluoro-ethyl)-5-trifluoromethyl-1H-indazol-3-ylamino]-acetamide], the IC50 stood at 160 nM.
With `Cc1ccc(C2(O)CCC(N3CC(NC(=O)CNc4nn(CCO)c5ccc(C(F)(F)F)cc45)C3)CC2)cn1` (centres unmarked) [Example 74, 2-[1-(2-Hydroxy-ethyl)-5-trifluoromethyl-1H-indazol-3-ylamino]-N-{1-[4-hydroxy-4-(6-methyl-pyridin-3-yl)-cyclohexyl]-azetidin-3-yl}-acetamide], the concentration for half-maximal inhibition (IC50) came out at 55 nM.
With `COc1ccc(C2(O)CCC(N3CC(NC(=O)CNc4nn(CCO)c5ccc(C(F)(F)F)cc45)C3)CC2)cn1` (centres unmarked) [Example 75, 2-[1-(2-Hydroxy-ethyl)-5-trifluoromethyl-1H-indazol-3-ylamino]-N-{1-[4-hydroxy-4-(6-methoxy-pyridin-3-yl)-cyclohexyl]-azetidin-3-yl}-acetamide], the half-maximal inhibitory concentration (IC50) is 32 nM.
For the compound `O=C(CNc1nn(CCO)c2ccc(C(F)(F)F)cc12)NC1CN(C2CCC(O)(c3cncs3)CC2)C1` (centres unmarked) [Example 76], the IC50 stood at 29 nM.
With `Cc1cnc(C2(O)CCC(N3CC(NC(=O)CNc4nn(CCO)c5ccc(C(F)(F)F)cc45)C3)CC2)s1` (centres unmarked) [Example 77, 2-[1-(2-Hydroxy-ethyl)-5-trifluoromethyl-1H-indazol-3-ylamino]-N-{1-[4-hydroxy-4-(5-methyl-thiazol-2-yl)-cyclohexyl]-azetidin-3-yl}-acetamide] the figure was 31 nM; with `CC(C)(C)NC(=O)n1nc(NCC(=O)NC2CN(C3CCC(O)(c4nccs4)CC3)C2)c2cc(C(F)(F)F)ccc21` (centres unmarked) [Example 80, 3-({[1-(4-Hydroxy-4-thiazol-2-yl-cyclohexyl)-azetidin-3-ylcarbamoyl]-methyl}-amino)-5-trifluoromethyl-indazole-1-carboxylic acid tert-butylamide], 75 nM; with `NC(=O)n1nc(NCC(=O)NC2CN(C3CCC(O)(c4nccs4)CC3)C2)c2cc(C(F)(F)F)ccc21` (centres unmarked) [Example 81, 3-({[1-(4-Hydroxy-4-thiazol-2-yl-cyclohexyl)-azetidin-3-ylcarbamoyl]-methyl}-amino)-5-trifluoromethyl-indazole-1-carboxylic acid amide], 29 nM.
Regarding `CCOc1ccc(C2(O)CCC(N3CC(NC(=O)CNc4nn(C(=O)NC(C)(C)C)c5ccc(C(F)(F)F)cc45)C3)CC2)cn1` (centres unmarked) [Example 82, 3-[({1-[4-(6-Ethoxy-pyridin-3-yl)-4-hydroxy-cyclohexyl]-azetidin-3-ylcarbamoyl}-methyl)-amino]-5-trifluoromethyl-indazole-1-carboxylic acid tert-butylamide], the concentration for half-maximal inhibition (IC50) worked out at 34 nM.
`CCOc1ccc(C2(O)CCC(N3CC(NC(=O)CNc4nn(C(N)=O)c5ccc(C(F)(F)F)cc45)C3)CC2)cn1` (centres unmarked) [Example 83, 3-[({1-[4-(6-Ethoxy-pyridin-3-yl)-4-hydroxy-cyclohexyl]-azetidin-3-ylcarbamoyl}-methyl)-amino]-5-trifluoromethyl-indazole-1-carboxylic acid amide]: the 50% inhibitory concentration (IC50) is 22 nM.
Take `CC(C)(C)NC(=O)n1nc(NCC(=O)NC2CN(C3CCC(O[Si](C)(C)C(C)(C)C)CC3)C2)c2cc(C(F)(F)F)ccc21` (centres unmarked) [Example 84, 3-[({1-[4-(tert-Butyl-dimethyl-silanyloxy)-cyclohexyl]-azetidin-3-ylcarbamoyl}-methyl)-amino]-5-trifluoromethyl-indazole-1-carboxylic acid tert-butylamide]: the half-maximal inhibitory concentration (IC50) came out at 870 nM.
`NC(=O)n1nc(NCC(=O)NC2CN(C3CCC(O)CC3)C2)c2cc(C(F)(F)F)ccc21` (centres unmarked) [Example 85, 3-({[1-(4-Hydroxy-cyclohexyl)-azetidin-3-ylcarbamoyl]-methyl}-amino)-5-trifluoromethyl-indazole-1-carboxylic acid amide]: the IC50 was determined as 530 nM.
For the compound `CC(C)(C)NC(=O)n1nc(NCC(=O)NC2CN(C3CCC(C#N)CC3)C2)c2cc(C(F)(F)F)ccc21` (centres unmarked) [Example 86, 3-({[1-(4-Cyano-cyclohexyl)-azetidin-3-ylcarbamoyl]-methyl}-amino)-5-trifluoromethyl-indazole-1-carboxylic acid tert-butylamide], the 50% inhibitory concentration (IC50) was 750 nM.
Take `N#CC1CCC(N2CC(NC(=O)CNc3nn(C(N)=O)c4ccc(C(F)(F)F)cc34)C2)CC1` (centres unmarked) [Example 87, 3-({[1-(4-Cyano-cyclohexyl)-azetidin-3-ylcarbamoyl]-methyl}-amino)-5-trifluoromethyl-indazole-1-carboxylic acid amide]: the concentration for half-maximal inhibition (IC50) amounted to 520 nM.
On to `CCOC(=O)C1CCC(N2CC(NC(=O)CNc3nn(C(=O)NC(C)(C)C)c4ccc(C(F)(F)F)cc34)C2)CC1` (centres unmarked) [Example 88, 4-{3-[2-(1-tert-Butylcarbamoyl-5-trifluoromethyl-1H-indazol-3-ylamino)-acetylamino]-azetidin-1-yl}-cyclohexanecarboxylic acid ethyl ester], for which the concentration for half-maximal inhibition (IC50) amounted to 360 nM.
Turning to `CCOC(=O)C1CCC(N2CC(NC(=O)CNc3nn(C(N)=O)c4ccc(C(F)(F)F)cc34)C2)CC1` (centres unmarked) [Example 89, 4-{3-[2-(1-Carbamoyl-5-trifluoromethyl-1H-indazol-3-ylamino)-acetylamino]-azetidin-1-yl}-cyclohexane carboxylic acid ethyl ester], the half-maximal inhibitory concentration (IC50) worked out at 56 nM.
With `CC(C)NC(=O)n1nc(NCC(=O)NC2CN(C3CCC(c4ccccc4)CC3)C2)c2cc(C(F)(F)F)ccc21` (centres unmarked) [Example 90, 3-({[1-(4-Phenyl-cyclohexyl)-azetidin-3-ylcarbamoyl]-methyl}-amino)-5-trifluoromethyl-indazole-1-carboxylic acid isopropylamide], the IC50 came out at 29 nM.
Next, `COc1ccc(C2CCC(N3CC(NC(=O)CNc4nn(C(=O)NC(C)C)c5ccc(C(F)(F)F)cc45)C3)CC2)cn1` (centres unmarked) [Example 91, 3-[({1-[4-(6-Methoxy-pyridin-3-yl)-cyclohexyl]-azetidin-3-ylcarbamoyl}-methyl)-amino]-5-trifluoromethyl-indazole-1-carboxylic acid isopropylamide]: 14 nM; `CC(C)NC(=O)n1nc(NCC(=O)NC2CN(C3CCC(C(C)C)CC3)C2)c2cc(C(F)(F)F)ccc21` (centres unmarked) [Example 92, 3-({[1-(4-Isopropyl-cyclohexyl)-azetidin-3-ylcarbamoyl]-methyl}-amino)-5-trifluoromethyl-indazole-1-carboxylic acid isopropylamide]: 1600 nM.
`CC(C)NC(=O)n1nc(NCC(=O)NC2CN(C3CCC(C4CCCCC4)CC3)C2)c2cc(C(F)(F)F)ccc21` (centres unmarked) [Example 93, 3-{[(1-Bicyclohexyl-4-yl-azetidin-3-ylcarbamoyl)-methyl]-amino}-5-trifluoromethyl-indazole-1-carboxylic acid isopropylamide]: the IC50 is 3100 nM.

By IC50 is commonly meant the midpoint of a concentration-inhibition curve.
